In PubChem BioAssay AID2060622 (Molecular Pharmacology Branch, DTP, NCI, 2025):
Several values for one entry are separate records, joined by “and”; a condition that tells them apart may be missing. Identical values can stand only once.

Tested on: 242566-281-R-J2-PDC complex spheroid viability
Test: Anticancer human tumor 242566-281-R-J2-PDC patient-derived pancreatic carcinoma cell line growth inhibition [CLK]
Conditions: for viability, T/C: stronger effect = lower value
Summary of the method: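 Multi-cell-type spheroids combined patient-derived tumor cells with HUVEC endothelial cells and human mesenchymal stem cells. Paired agents were dosed in half-log steps down from about clinical Cmax, or from 10 microM where Cmax was unknown.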

[1] = curve of first compound, second compound 0.0316 µM
[2] = curve of first compound, second compound 0.1 µM
[3] = curve of first compound, second compound 0.316 µM
[4] = curve of first compound, second compound 1 µM
[5] = curve of first compound, second compound 3.16 µM
[6] = curve of first compound, second compound 10 µM
[7] = second compound 0.0316 µM, first compound 0.0316 µM
[8] = second compound 0.0316 µM, first compound 0.1 µM
[9] = second compound 0.0316 µM, first compound 0.316 µM
[10] = second compound 0.0316 µM, first compound 1 µM
[11] = second compound 0.0316 µM, first compound 3.16 µM
[12] = second compound 0.0316 µM, first compound 10 µM
[13] = second compound 0.1 µM, first compound 0.0316 µM
[14] = second compound 0.1 µM, first compound 0.1 µM
[15] = second compound 0.1 µM, first compound 0.316 µM
[16] = second compound 0.1 µM, first compound 1 µM
[17] = second compound 0.1 µM, first compound 3.16 µM
[18] = second compound 0.1 µM, first compound 10 µM
[19] = second compound 0.316 µM, first compound 0.0316 µM
[20] = second compound 0.316 µM, first compound 0.1 µM
[21] = second compound 0.316 µM, first compound 0.316 µM
[22] = second compound 0.316 µM, first compound 1 µM
[23] = second compound 0.316 µM, first compound 3.16 µM
[24] = second compound 0.316 µM, first compound 10 µM
[25] = second compound 1 µM, first compound 0.0316 µM
[26] = second compound 1 µM, first compound 0.1 µM
[27] = second compound 1 µM, first compound 0.316 µM
[28] = second compound 1 µM, first compound 1 µM
[29] = second compound 1 µM, first compound 3.16 µM
[30] = second compound 1 µM, first compound 10 µM
[31] = second compound 3.16 µM, first compound 0.0316 µM
[32] = second compound 3.16 µM, first compound 0.1 µM
[33] = second compound 3.16 µM, first compound 0.316 µM
[34] = second compound 3.16 µM, first compound 1 µM
[35] = second compound 3.16 µM, first compound 3.16 µM
[36] = second compound 3.16 µM, first compound 10 µM
[37] = second compound 10 µM, first compound 0.0316 µM
[38] = second compound 10 µM, first compound 0.1 µM
[39] = second compound 10 µM, first compound 0.316 µM
[40] = second compound 10 µM, first compound 1 µM
[41] = second compound 10 µM, first compound 3.16 µM
[42] = second compound 10 µM, first compound 10 µM
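Further: spheroids exposed to compounds for 7 days before readout.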
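Wherever viability, T/C is given: 100% = DMSO vehicle control wells.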

SMILES: CC(=O)O[C@H]1C(=O)[C@@]2(C)[C@H]([C@H](OC(=O)c3ccccc3)[C@]3(O)C[C@H](OC(=O)[C@H](O)[C@@H](NC(=O)c4ccccc4)c4ccccc4)C(C)=C1C3(C)C)[C@]1(OC(C)=O)CO[C@@H]1C[C@@H]2O + CN1CCN(c2cc(C(=O)Nc3cc4cc(-c5cnn(C)c5)ccc4cn3)ccn2)CC1
- IC50 [1]: < 0.0316 µM
- IC50 [2]: < 0.0316 µM
- IC50 [3]: < 0.0316 µM
- IC50 [4]: < 0.0316 µM
- IC50 [5]: < 0.0316 µM
- IC50 [6]: < 0.0316 µM
- viability, T/C [7]: 37%
- viability, T/C [8]: 33.4%
- viability, T/C [9]: 28.9%
- viability, T/C [10]: 26.7%
- viability, T/C [11]: 32.2%
- viability, T/C [12]: 34.8%
- viability, T/C [13]: 43.7%
- viability, T/C [14]: 29.1%
- viability, T/C [15]: 27.7%
- viability, T/C [16]: 25.2%
- viability, T/C [17]: 29.1%
- viability, T/C [18]: 28.6%
- viability, T/C [19]: 15.9%
- viability, T/C [20]: 15.5%
- viability, T/C [21]: 15.1%
- viability, T/C [22]: 17.2%
- viability, T/C [23]: 25%
- viability, T/C [24]: 31.3%
- viability, T/C [25]: 5.85%
- viability, T/C [26]: 4.53%
- viability, T/C [27]: 5.01%
- viability, T/C [28]: 4.32%
- viability, T/C [29]: 5.32%
- viability, T/C [30]: 5.54%
- viability, T/C [31]: 7.09%
- viability, T/C [32]: 7.07%
- viability, T/C [33]: 7.24%
- viability, T/C [34]: 7.25%
- viability, T/C [35]: 7.67%
- viability, T/C [36]: 7.22%
- viability, T/C [37]: 1.45%
- viability, T/C [38]: 1.31%
- viability, T/C [39]: 1%
- viability, T/C [40]: 1.28%
- viability, T/C [41]: 1.57%
- viability, T/C [42]: 1.05%

SMILES: CC1(C)CCC(CN2CCN(c3ccc(C(=O)NS(=O)(=O)c4ccc(NCC5CCOCC5)c([N+](=O)[O-])c4)c(Oc4cnc5[nH]ccc5c4)c3)CC2)=C(c2ccc(Cl)cc2)C1 + CN1CCN(c2cc(C(=O)Nc3cc4cc(-c5cnn(C)c5)ccc4cn3)ccn2)CC1
- IC50 [1]: 6.54 µM
- IC50 [2]: 6.08 µM
- IC50 [3]: < 0.0316 µM
- IC50 [4]: < 0.0316 µM
- IC50 [5]: < 0.0316 µM
- IC50 [6]: < 0.0316 µM
- viability, T/C [7]: 109%
- viability, T/C [8]: 109%
- viability, T/C [9]: 101%
- viability, T/C [10]: 112%
- viability, T/C [11]: 109%
- viability, T/C [12]: 16.1%
- viability, T/C [13]: 100%
- viability, T/C [14]: 92.8%
- viability, T/C [15]: 93.2%
- viability, T/C [16]: 96.9%
- viability, T/C [17]: 107%
- viability, T/C [18]: 13.4%
- viability, T/C [19]: 38.1%
- viability, T/C [20]: 34%
- viability, T/C [21]: 31.9%
- viability, T/C [22]: 38.9%
- viability, T/C [23]: 36.2%
- viability, T/C [24]: 5.57%
- viability, T/C [25]: 5.27%
- viability, T/C [26]: 5.79%
- viability, T/C [27]: 6.15%
- viability, T/C [28]: 6.22%
- viability, T/C [29]: 5.21%
- viability, T/C [30]: 1.17%
- viability, T/C [31]: 7.94%
- viability, T/C [32]: 7.2%
- viability, T/C [33]: 8.15%
- viability, T/C [34]: 7.96%
- viability, T/C [35]: 6.33%
- viability, T/C [36]: 1.38%
- viability, T/C [37]: 2.16%
- viability, T/C [38]: 2.09%
- viability, T/C [39]: 1.92%
- viability, T/C [40]: 2.08%
- viability, T/C [41]: 1.25%
- viability, T/C [42]: 0.24%

SMILES: COc1cccc2c1C(=O)c1c(O)c3c(c(O)c1C2=O)CC(O)(C(=O)CO)CC3OC1CC(N)C(O)C(C)O1 (stereo not drawn)
- viability, T/C (compound 0.0316 µM): 66.3% and 79%
- viability, T/C (compound 0.1 µM): 41.5% and 64.7%
- viability, T/C (compound 0.316 µM): 15.3% and 35.8%
- viability, T/C (compound 1 µM): 7.56% and 20.2%
- viability, T/C (compound 3.16 µM): 1.88% and 6.69%
- viability, T/C (compound 10 µM): 1.33% and 1.37%
- IC50 (curve of compound): 0.0666 µM and 0.183 µM

SMILES: CCN1CCN(Cc2ccc(Nc3ncc(F)c(-c4cc(F)c5nc(C)n(C(C)C)c5c4)n3)nc2)CC1 + CNC(=O)c1ccc(Nc2nc(OC3CCCC3)c3c(-c4ccc5nc(C)oc5c4)c[nH]c3n2)c(OC)c1
- IC50 [1]: > 1 µM
- IC50 [2]: > 1 µM
- IC50 [3]: > 1 µM
- IC50 [4]: > 1 µM
- IC50 [5]: > 1 µM
- IC50 [6]: > 1 µM
- viability, T/C (second compound 0.0316 µM, first compound 0.00316 µM): 103%
- viability, T/C (second compound 0.0316 µM, first compound 0.01 µM): 106%
- viability, T/C [7]: 92%
- viability, T/C [8]: 126%
- viability, T/C [9]: 136%
- viability, T/C [10]: 154%
- viability, T/C (second compound 0.1 µM, first compound 0.00316 µM): 76.5%
- viability, T/C (second compound 0.1 µM, first compound 0.01 µM): 109%
- viability, T/C [13]: 95.7%
- viability, T/C [14]: 104%
- viability, T/C [15]: 122%
- viability, T/C [16]: 153%
- viability, T/C (second compound 0.316 µM, first compound 0.00316 µM): 91.6%
- viability, T/C (second compound 0.316 µM, first compound 0.01 µM): 98%
- viability, T/C [19]: 79.2%
- viability, T/C [20]: 117%
- viability, T/C [21]: 125%
- viability, T/C [22]: 156%
- viability, T/C (second compound 1 µM, first compound 0.00316 µM): 74.5%
- viability, T/C (second compound 1 µM, first compound 0.01 µM): 86.8%
- viability, T/C [25]: 84.8%
- viability, T/C [26]: 96.2%
- viability, T/C [27]: 134%
- viability, T/C [28]: 142%
- viability, T/C (second compound 3.16 µM, first compound 0.00316 µM): 63.2%
- viability, T/C (second compound 3.16 µM, first compound 0.01 µM): 61%
- viability, T/C [31]: 72.1%
- viability, T/C [32]: 85.7%
- viability, T/C [33]: 118%
- viability, T/C [34]: 123%
- viability, T/C (second compound 10 µM, first compound 0.00316 µM): 55.1%
- viability, T/C (second compound 10 µM, first compound 0.01 µM): 59.8%
- viability, T/C [37]: 75.4%
- viability, T/C [38]: 80.5%
- viability, T/C [39]: 101%
- viability, T/C [40]: 124%
